# Measured values: patent US20050164370A1 (priority 2003, published 2005)
# How the values were obtained:
# Assay type in all cases: cell-based, yeast
# [1] = test system: transformed cells TM182-CYC1-CYC1IPT5; test: Liquid culture of transformed cell TM182-CYC1-CYC1IPT5 with examinee substance, absorbance; conditions: DOHLU+Glu, 30° C. for 24 hours
# Protocol: (§1) The thus obtained culture solutions were diluted with DOHLU+Glu culture medium so that OD600 became 0.200, and then the diluted ones were further diluted with DOHLU+Glu culture medium at a dilution rate of 1/200 to obtain diluted pre-cultured solutions.
# (§2) A 96-well assay plate was prepared by filling each well with 1 μL of a DMSO solution of an examinee substance (Abscisic acid or 6-Benzyl aminopurine). In this regard, it is to be noted that the DMSO solution of a examinee substance was prepared so that the concentration thereof became 200 ppm. Simultaneously, an assay plate was prepared by filling each well with 1 μL of DMSO as a blank section.
# (§3) Each of the diluted pre-cultured solutions was added in a volume of 100 μL per each well of both of the assay plates, and was cultured at 30° C. for 24 hours. After incubation, the turbidity of each well was measured using a plate reader. The absorbance (OD600) of each of the culture solutions of the transformed cells containing the examinee substance was shown in Table 3. […] Further, the growth speeds of the transformed cells TM182-CRE1-CYC1IPT4 and TM182-CRE1-ADHIPT5 in the culture medium to which 6-Benzyl aminopurine was added were faster than those in the culture medium to which only DMSO was added.
# as §3, with “4.” for “3.”, “TM182-CRE1-ADHIPT4, TM182-AHK2-CYC1IPT4, TM182-AHK2-CYC1IPT5” for “TM182-CRE1-CYC1IPT4”, “TM182-AHK2-ADHIPT5” for “TM182-CRE1-ADHIPT5”
# [2] = test system: transformed cells TM182-AHK2-CYC1IPT5; test: Liquid culture of transformed cell TM182-AHK2-CYC1IPT5 with examinee substance, absorbance; conditions: Table 4, TM182-AHK2-CYC1-IPT5, 1 μL of 200 ppm DMSO solution per 100 μL, DOHLU+Glu, 30° C. for 24 hours
# Protocol: as §1, §2
# as §3, with “4.” for “3.”, “TM182-CRE1-ADHIPT4, TM182-AHK2-CYC1IPT4, TM182-AHK2-CYC1IPT5” for “TM182-CRE1-CYC1IPT4”, “TM182-AHK2-ADHIPT5” for “TM182-CRE1-ADHIPT5”
# cytokinin receptor AHK2Δ = biological target: T1, cytokinin receptor AHK2Δ (Arabidopsis thaliana, UniProt Q9C5U2); design: added initiator methionine (ATG added at the 5' end) (N); expressed in transfected cells; host or cells: yeast strain TM182 carrying plasmid p415CYC-AHK2Δ (pHM-1 backbone, CYC1 promoter); conditions: TM182-AHK2Δ, examinee substance 100 μM, DOLU+Glu, 30° C. for 24 hours
# T1 sequence (Q9C5U2 196-1176): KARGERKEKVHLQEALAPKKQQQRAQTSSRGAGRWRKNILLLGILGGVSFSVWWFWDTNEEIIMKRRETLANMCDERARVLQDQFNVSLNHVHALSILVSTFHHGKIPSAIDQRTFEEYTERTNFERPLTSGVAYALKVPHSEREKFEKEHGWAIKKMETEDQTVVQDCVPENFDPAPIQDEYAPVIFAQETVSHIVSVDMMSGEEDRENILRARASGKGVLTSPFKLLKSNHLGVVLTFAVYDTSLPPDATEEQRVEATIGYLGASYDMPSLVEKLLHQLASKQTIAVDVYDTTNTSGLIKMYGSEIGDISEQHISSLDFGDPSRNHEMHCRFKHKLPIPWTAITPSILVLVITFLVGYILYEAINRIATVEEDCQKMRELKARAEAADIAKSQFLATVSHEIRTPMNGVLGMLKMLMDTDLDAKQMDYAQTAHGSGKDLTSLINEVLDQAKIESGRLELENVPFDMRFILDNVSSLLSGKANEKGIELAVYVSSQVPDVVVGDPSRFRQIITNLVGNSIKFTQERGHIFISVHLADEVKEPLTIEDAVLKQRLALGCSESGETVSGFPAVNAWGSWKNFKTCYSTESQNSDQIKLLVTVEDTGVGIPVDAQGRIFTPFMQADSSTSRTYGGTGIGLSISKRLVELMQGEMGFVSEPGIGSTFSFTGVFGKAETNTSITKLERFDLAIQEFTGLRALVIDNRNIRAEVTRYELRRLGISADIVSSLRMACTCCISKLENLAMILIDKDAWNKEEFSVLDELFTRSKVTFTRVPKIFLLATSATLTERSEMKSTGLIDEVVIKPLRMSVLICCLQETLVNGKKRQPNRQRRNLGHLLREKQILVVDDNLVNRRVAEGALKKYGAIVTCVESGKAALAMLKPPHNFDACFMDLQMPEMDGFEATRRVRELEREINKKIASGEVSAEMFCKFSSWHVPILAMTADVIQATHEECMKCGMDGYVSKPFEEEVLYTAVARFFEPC
# Protocol: The transformed cells TM182-AHK2, TM182-AHK2Δ and TM182-AHK3 produced in the reference example 1 were inoculated in 200 ml of DOLU+Gal culture media and pre-cultured at 30° C. for 36 hours. The pre-cultured solutions were diluted with DOLU+Glu media as to become 0.100 as the optical density (OD600) and further the resultants were diluted with DOLU+Glu media at a dilution rate of 1/200 to obtain diluted pre-cultured solutions.
# An assay plate was prepared by filling respective wells of a 96-well plate with 20 μl of solutions which were prepared by diluting DMSO solution (10 mM) of each examinee substance with DOLU+Glu medium at a dilution rate of 1/100, said solutions containing each examinee substance to be […]. […]
# The diluted pre-cultured solutions were added in 200 μl each into the respective wells of both assay plates and cultured at 30° C. for 24 hours and then the optical density (OD620) of each well was measured by a plate reader. The agonist-activity of the examinee substances to the cytokinin receptor was detected by comparing the optical density measured in the testing sections to which the examinee substances were added with the optical density measured in the blank sections.
# [3] = Table 3, TM182-CYC1-CYC1-IPT5, 1 μL of 200 ppm DMSO solution per 100 μL
# [4] = Table 4, TM182-CYC1-CYC1-IPT5, 1 μL of 200 ppm DMSO solution per 100 μL
Structure (SMILES),"absorbance (OD600) of the culture solution [1, 3]","absorbance (OD600) of the culture solution [1, 4]",absorbance (OD600) of the culture solution [2],optical density (OD620) of the culture solution (cytokinin receptor AHK2Δ)
"CC1=CC(=O)CC(C)(C)[C@@]1(O)/C=C/C(C)=C\C(=O)O [Compound A, Abscisic acid]",0.041,0.036,0.069,0
"c1ccc(CNc2ncnc3nc[nH]c23)cc1 [Compound B, 6-Benzyl aminopurine]",0.043,0.035,0.430,0.89
